From ChEMBL document CHEMBL3217427, “Identification of 3-aminothieno[2,3-b]pyridine-2-carboxamides and 4-aminobenzothieno[3,2-d]pyrimidines as LIMK1 inhibitors” (Medchemcomm, 2011)

Experiments:
LIM domain kinase 1 [1] = biological target: T1, LIM domain kinase 1 (Homo sapiens, UniProt P53667); assay: Inhibition of LIMK1 (unknown origin) using cofilin-2 as substrate after 60 mins by Kinase-Glo assay
Target sequence in this assay (P53667 whole entry, the tested form may be a part): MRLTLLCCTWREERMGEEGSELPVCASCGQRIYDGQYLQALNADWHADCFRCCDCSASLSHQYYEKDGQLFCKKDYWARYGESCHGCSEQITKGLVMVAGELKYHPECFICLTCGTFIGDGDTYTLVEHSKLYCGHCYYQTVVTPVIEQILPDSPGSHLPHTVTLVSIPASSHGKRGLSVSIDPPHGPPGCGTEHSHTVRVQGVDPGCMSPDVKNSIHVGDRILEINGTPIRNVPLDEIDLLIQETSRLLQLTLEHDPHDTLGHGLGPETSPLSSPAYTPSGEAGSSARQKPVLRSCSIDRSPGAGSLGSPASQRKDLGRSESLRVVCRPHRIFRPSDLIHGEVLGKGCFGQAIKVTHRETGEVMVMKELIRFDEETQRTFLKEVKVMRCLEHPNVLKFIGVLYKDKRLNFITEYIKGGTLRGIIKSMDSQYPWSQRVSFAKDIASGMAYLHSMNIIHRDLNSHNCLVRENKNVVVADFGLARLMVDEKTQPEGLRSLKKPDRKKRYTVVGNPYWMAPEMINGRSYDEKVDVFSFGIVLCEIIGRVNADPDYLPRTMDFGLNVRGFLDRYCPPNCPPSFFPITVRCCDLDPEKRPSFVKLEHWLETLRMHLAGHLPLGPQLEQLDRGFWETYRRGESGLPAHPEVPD

LIM domain kinase 1 [2] = biological target: T1, LIM domain kinase 1; assay: Inhibition of LIMK1 (unknown origin) using cofilin-2 as substrate at 30 uM after 60 mins by Kinase-Glo assay relative to control
Target sequence in this assay (P53667 whole entry, looked up, the tested form may be a part): as the sequence (P53667 whole entry, the tested form may be a part) above

| IC50 (LIM domain kinase 1 [1]) [µM] | inhibition (LIM domain kinase 1 [2]) [%] | SMILES |
| --- | --- | --- |
| 92 | – | NC(=O)c1sc2cccnc2c1N |
| 6.1 | – | Nc1ncnc2c1sc1c(-c3ccccc3)cccc12 |
| – | 98 | NC(=O)c1sc2nccc(Nc3ccccc3)c2c1N |
| 1.6 | – | NC(=O)c1sc2nc(-c3cccs3)cc(C(F)(F)F)c2c1N |
| – | 0 | Nc1c(C(=O)N2CCOCC2)sc2ncccc12 |
| > 100 | – | CNC(=O)c1sc2ncccc2c1N |
| 30 | – | NC(=O)c1sc2nc(Cc3ccccc3)cc(C(F)(F)F)c2c1N |
| > 100 | – | NC(=O)c1oc2ccccc2c1N |
| 43 | – | Cc1nc(N)c2sc3ncccc3c2n1 |
| – | 0 | Nc1c(C(=O)Nc2ccccc2)sc2nccc(Nc3ccccc3)c12 |
| > 100 | – | NC(=O)c1sc2ccccc2c1O |
| 15 | – | Nc1ncnc2c1oc1ccccc12 |
| 5.5 | – | Nc1ncnc2c1sc1cccc(-c3ccccc3)c12 |
| 56 | – | Cc1ccc2c(N)c(C(N)=O)sc2n1 |
| 37 | – | Cc1cc(-c2ccc(Cl)cc2)c2c(N)c(C(N)=O)sc2n1 |
| > 50 | – | Nc1nc(-c2ccccc2)nc2c1sc1ncccc12 |
| 7.1 | – | NC(=O)c1sc2nc(-c3cccnc3)ccc2c1N |
| – | 2 | Nc1c(C(=O)NC2CCCCC2)sc2ncccc12 |
| > 100 | – | CCOC(=O)c1sc2ccccc2c1N |
| 44 | – | COc1ccc(-c2cc(-c3ccccc3)nc3sc(C(N)=O)c(N)c23)cc1 |
| 9 | – | Cc1cc(C)c2c(N)c(C(N)=O)sc2n1 |
| > 100 | – | NC(=O)c1cc2ccccc2s1 |

| IC50 (LIM domain kinase 1 [1]) [µM] | inhibition (LIM domain kinase 1 [2]) [%] | SMILES |
| --- | --- | --- |
| 11 | 79 | Cc1ccnc2sc(C(N)=O)c(N)c12 |
| 1.3 | – | NC(=O)c1sc2nc(-c3ccc4c(c3)OCCO4)cc(C(F)(F)F)c2c1N |
| – | 67 | CN(C)c1ccnc2sc(C(N)=O)c(N)c12 |
| 0.7 | – | Nc1ncnc2c1sc1nc(-c3ccccc3)ccc12 |
| > 100 | – | Nc1c(C(=O)O)sc2ncccc12 |
| 34 | – | CNc1c(C(N)=O)sc2ccccc12 |
| – | 50 | NC(=O)c1sc2nc3c(c(-c4cccs4)c2c1N)CCC3 |
| > 100 | – | Nc1ncnc2c1sc1nccnc12 |
| 3 | – | NC(=O)c1sc2nc(-c3ccccc3)ccc2c1N |
| 2.8 | – | NC(=O)c1sc2nc(-c3ccccc3)c3c(c2c1N)CCCC3 |
| 43 | – | Nc1ncnc2c1sc1cccnc12 |
| > 100 | – | Nc1c(C(=O)O)sc2ccccc12 |
| – | 15 | Nc1c(C(=O)Nc2ccccc2)sc2ncccc12 |
| 2 | – | NC(=O)c1sc2nc(-c3ccccc3)cc(-c3ccco3)c2c1N |
| 5.7 | – | Nc1ncnc2c1sc1ccc(-c3ccccc3)cc12 |
| 4 | – | Nc1ncnc2c1[nH]c1ccccc12 |
| > 100 | – | CN(C)C(=O)c1sc2ncccc2c1N |
| 41 | – | Cc1ccc(-c2cc(C(F)(F)F)c3c(N)c(C(N)=O)sc3n2)o1 |
| – | 40 | NC(=O)c1sc2ncccc2c1N |
| > 100 | – | NNC(=O)c1sc2ncccc2c1N |
| – | 16 | NC(=O)c1sc2ncc3c(c2c1N)CCCC3 |
